Laboratory results as given in US20190133128A1, “Fungicidal pyridazinones” (FMC Corporation, priority 2017, published 2019).

Key:
Assay type in all cases: in vivo
Phakopsora pachyrhizi = test: Test A: preventive spray on soybean seedlings, Asian soybean rust, visual disease rating; conditions: 250 ppm, 100 = 100% disease control, 0 = no control
[1] = test system: Puccinia recondita f. sp. tritici; test: Test F: preventive spray on wheat seedlings, wheat leaf rust, visual disease rating; conditions: 250 ppm, 100 = 100% disease control, 0 = no control
In short: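 Preventive test: wheat seedlings were sprayed to run-off with compound suspended in acetone/water 50/50 plus PEG400 (250 ppm or other indicated rate). One day later they received Puccinia recondita f. sp. tritici spores, and disease was scored visually.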

Plasmopara viticola = test: Test B: preventive spray on grape seedlings, grape downy mildew, disease rating; conditions: 250 ppm, 100 = 100% disease control, 0 = no control
Source text: General protocol for preparing test solutions for Tests AG: the test compounds were first dissolved in acetone in an amount equal to 3% of the final volume and then suspended at the desired concentration (in ppm) in acetone and purified water (50/50 mix by volume) containing the surfactant PEG400 (polyhydric alcohol esters). The resulting test suspensions were then used in Tests AG. Compounds were sprayed at a concentration of 250 ppm or other indicated rate to the point of run-off on the test plants. The test solution was sprayed to the point of run-off on grape seedlings. […] A dash (-) indicates no test results.

Phytophthora infestans = test: whole plant or invertebrate; conditions: 250 ppm; tomato seedlings; 100 = 100% disease control, 0 = no control
[2] = test system: Erysiphe graminis f. sp. tritici; test: Test G: preventive spray on wheat seedlings, wheat powdery mildew, visual disease rating; conditions: 250 ppm, 100 = 100% disease control, 0 = no control
In short: (§1)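 Preventive foliar spray of wheat seedlings to run-off, at 250 ppm or other indicated rate. Compounds dissolved in acetone (3% of final volume), suspended in 50/50 acetone–water with PEG400 surfactant. Disease rated visually.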

Zymoseptoria tritici = test: Test E: preventive spray on wheat seedlings, wheat leaf blotch, visual disease rating; conditions: 250 ppm, 100 = 100% disease control, 0 = no control
In short: as §1

Botrytis cinerea = test: Test C: preventive spray on tomato seedlings, gray mold, visual disease rating; conditions: 250 ppm, 100 = 100% disease control, 0 = no control
In short: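 Tomato seedlings received a run-off spray, typically 250 ppm (or stated rate), ahead of gray mold inoculation and visual scoring. Test suspensions: acetone stock (3% of volume) diluted into 1:1 acetone/water containing PEG400.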

SMILES | Test A disease control rating (Phakopsora pachyrhizi) [%] | Test F disease control rating [1] [%] | Test B disease control rating (Plasmopara viticola) [%] | Test D disease control rating (Phytophthora infestans) [%] | Test G disease control rating [2] [%] | Test E disease control rating (Zymoseptoria tritici) [%] | Test C disease control rating (Botrytis cinerea) [%]
Cn1ncc(O)c(C(=O)Nc2ccc(CC(F)(F)F)cc2)c1=O [Compound 140] | 0 | 99 | 100 | 96 | 27 | 88 | 0
Cn1ncc(O)c(C(=O)Nc2ccc(OC(F)(F)F)cc2Cl)c1=O [Compound 142] | 71 | 99 | 99 | 92 | 98 | 77 | 26
CCCC[N+](CCCC)(CCCC)CCCC.Cn1ncc([O-])c(C(=O)Nc2ccc(S(F)(F)(F)(F)F)cc2)c1=O [Compound 143] | 62 | 94 | 100 | 70 | 69 | 88 | 0
CNc1cnn(C)c(=O)c1C(=O)Nc1ccc(OC(F)(F)F)cc1 [Compound 146] | 0 | 0 | 10 | 0 | 0 | 0 | 0
Cn1ncc(O)c(C(=O)Nc2ccc(C(F)(F)F)cc2C(F)(F)F)c1=O [Compound 147] | 0 | 99 | 97 | 99 | 98 | 87 | 0
